Data reported in ChEMBL document CHEMBL3286334, “Identification of tetrapeptides from a mixture based positional scanning library that can restore nM full agonist function of the L106P, I69T, I102S, A219V, C271Y, and C271R human melanocortin-4 polymorphic receptors (hMC4Rs)” (J Med Chem, 2014).

Columns and labels:
Assay type in all cases: functional, cell-based
[1] = target: T1, Melanocortin receptor 4 (Homo sapiens, UniProt P32245); test: Agonist activity at wild type human melanocortin-4 receptor expressed in HEK293 cells co-transfected with CRE/beta-galactosidase reporter gene assessed as stimulatory response after 6 hrs
[2] = target: Melanocortin receptor 4 (Homo sapiens, UniProt P32245, A219V); test: Agonist activity at human melanocortin-4 receptor A219V mutant expressed in HEK293 cells co-transfected with CRE/beta-galactosidase reporter gene assessed as stimulatory response after 6 hrs
[3] = target: Melanocortin receptor 4 (Homo sapiens, UniProt P32245, C271Y); test: Agonist activity at human melanocortin-4 receptor C271Y mutant expressed in HEK293 cells co-transfected with CRE/beta-galactosidase reporter gene assessed as stimulatory response after 6 hrs
[4] = target: Melanocortin receptor 4 (Homo sapiens, UniProt P32245, C271R); test: Agonist activity at human melanocortin-4 receptor C271R mutant expressed in HEK293 cells co-transfected with CRE/beta-galactosidase reporter gene assessed as stimulatory response after 6 hrs
[5] = target: Melanocyte-stimulating hormone receptor (Mus musculus, UniProt Q01727); test: Agonist activity at mouse melanocortin-1 receptor expressed in HEK293 cells co-transfected with CRE/beta-galactosidase reporter gene assessed as stimulatory response after 6 hrs
[6] = target: Melanocortin receptor 4 (Homo sapiens, UniProt P32245, L106P); test: Agonist activity at human melanocortin-4 receptor L106P mutant expressed in HEK293 cells co-transfected with CRE/beta-galactosidase reporter gene assessed as stimulatory response after 6 hrs
[7] = target: Melanocortin receptor 4 (Mus musculus, UniProt P56450); test: Agonist activity at mouse melanocortin-4 receptor expressed in HEK293 cells co-transfected with CRE/beta-galactosidase reporter gene assessed as stimulatory response after 6 hrs
[8] = target: Melanocortin receptor 5 (Mus musculus, UniProt P41149); test: Agonist activity at mouse melanocortin-5 receptor expressed in HEK293 cells co-transfected with CRE/beta-galactosidase reporter gene assessed as stimulatory response after 6 hrs
[9] = target: Melanocortin receptor 4 (Homo sapiens, UniProt P32245, I69T); test: Agonist activity at human melanocortin-4 receptor I69T mutant expressed in HEK293 cells co-transfected with CRE/beta-galactosidase reporter gene assessed as stimulatory response after 6 hrs
[10] = target: Melanocortin receptor 4 (Homo sapiens, UniProt P32245, I102S); test: Agonist activity at human melanocortin-4 receptor I102S mutant expressed in HEK293 cells co-transfected with CRE/beta-galactosidase reporter gene assessed as stimulatory response after 6 hrs
[11] = tested on: Melanocortin receptor 4 (Homo sapiens), P32245 [L106P]; test: Agonist activity at human melanocortin-4 receptor L106P mutant expressed in HEK293 cells co-transfected with CRE/beta-galactosidase reporter gene assessed as stimulatory response at 10 uM after 6 hrs
[12] = tested on: Melanocortin receptor 4 (Homo sapiens), P32245 [L106P]; test: Agonist activity at human melanocortin-4 receptor L106P mutant expressed in HEK293 cells co-transfected with CRE/beta-galactosidase reporter gene assessed as stimulatory response at 100 uM after 6 hrs
[13] = target: T1, Melanocortin receptor 4; test: Agonist activity at wild type human melanocortin-4 receptor expressed in HEK293 cells co-transfected with CRE/beta-galactosidase reporter gene assessed as stimulatory response at 100 uM after 6 hrs

Compound `CC(=O)N[C@@H](CCCNC(=N)N)C(=O)N[C@H](Cc1ccc(Cl)cc1)C(=O)N1Cc2ccccc2C[C@H]1C(=O)N[C@H](Cc1ccc([N+](=O)[O-])cc1)C(N)=O` has an EC50 [1] of 0.21 nM, an EC50 [2] of 4.2 nM and an EC50 [3] of 470 nM. It also gave an EC50 [4] of 3390 nM, an EC50 [5] of 22 nM and an EC50 [6] of 3.4 nM. The EC50 [7] was 7.6 nM, the EC50 [8] was 1 nM and the EC50 [9] was 5.2 nM. The EC50 [10] was 4.4 nM.
Compound `CC(=O)N[C@@H](Cc1c[nH]cn1)C(=O)N[C@H](Cc1ccc(I)cc1)C(=O)N1Cc2ccccc2C[C@H]1C(=O)N[C@H](Cc1ccc([N+](=O)[O-])cc1)C(N)=O` has an EC50 [1] of 0.24 nM, an EC50 [2] of 4.5 nM and an EC50 [3] of 190 nM. It also gave an EC50 [4] of 295 nM, an EC50 [5] of 2.9 nM and an EC50 [6] of 10 nM. It also gave an EC50 [7] of 2.4 nM, an EC50 [8] of 0.84 nM and an EC50 [9] of 3.8 nM. The EC50 [10] was 14 nM.
For `CC(=O)N[C@@H](Cc1c[nH]cn1)C(=O)N[C@H](Cc1ccc(Cl)cc1)C(=O)N1Cc2ccccc2C[C@H]1C(=O)N[C@H](Cc1ccc([N+](=O)[O-])cc1)C(N)=O`, the EC50 [1] was 0.4 nM, the EC50 [2] was 2.8 nM and the EC50 [3] was 82 nM. The EC50 [4] was 130 nM, the EC50 [5] was 4 nM and the EC50 [6] was 15 nM. The EC50 [7] was 5.2 nM, the EC50 [8] was 0.63 nM and the EC50 [9] was 4.3 nM. The EC50 [10] was 3 nM.
`CC(=O)N1Cc2ccccc2CC1C(=O)N[C@H](Cc1ccc(I)cc1)C(=O)N1Cc2ccccc2CC1C(=O)N[C@@H](Cc1ccc(I)cc1)C(N)=O` (stereo partly drawn) gave an Activity [11] of 70%.
For `CC(=O)N1Cc2ccccc2CC1C(=O)N[C@H](Cc1ccc(I)cc1)C(=O)N1Cc2ccccc2CC1C(=O)N1Cc2ccccc2CC1C(N)=O` (stereo partly drawn), the Activity [12] was 50% and the Activity [13] was 50%.
